The values below come from patent US7919093B2, “Roles for dual endothelin-1/angiotensin II receptor (Dear) in hypertension and angiogenesis” (Trustees of Boston University, priority 2004, dated 2011).

Structures are written as SMILES. Positions count from the first letter of the chain named.

Assay [1] deals with T1, Dahl R Dear S44P/M74T variant (Rattus norvegicus, UniProt D3ZGZ6, F4L/M74T/S44P).
T1 construct: expressed in transfected cells; host or cells: Cos1 cells (membranes), pcDNA expression vector
T1 sequence (D3ZGZ6 1-127 F4L/S44P/M74T): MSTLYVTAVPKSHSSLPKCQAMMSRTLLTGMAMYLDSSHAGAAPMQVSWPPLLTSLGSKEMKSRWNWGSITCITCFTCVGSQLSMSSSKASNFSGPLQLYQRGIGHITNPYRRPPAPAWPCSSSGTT
The assay can be described thus: Radioligand binding to Dahl R Dear expressed in Cos1 cell membranes. Particulars: for hormone binding (direct radioligand binding), in words: Dahl R Dear transiently expressed in Cos1 cells. How it is done: (§1) The Dahl S and Dahl R Dear cDNAs were subcloned directionally (5′ to 3′) into the pcDNA (+) expression vector (Invitrogen, Carlsbad, Calif.) and transiently expressed in Cos1 cells (ATCC). Cos1 cells were transfected with the expression vectors via lipofectin-mediated gene transfer and cell membranes were isolated 72 hr post-transfection for hormone binding. Rat kidney membranes were prepared essentially as described (42). COS-1 cell membranes were isolated as described (36). Briefly, cells were washed twice in phosphate-buffered saline and homogenized in 10-fold ice-cold buffer (0.25 M sucrose, 1 mM EDTA, 50 μg/ml aprotinin, 10 μg/ml leupeptin, 100 μM phenylmethylsulfonyl fluoride, 25 mM Imidazol/HCl, pH 7.4). The homogenate was centrifuged at 5,000 g for 15 min and the pellet was discarded. The supernatant was then centrifuged at 27,500 g for 30 min and the resulting pellet was washed twice in ice-cold suspension buffer (5 mM MgCl2, 0.2 mM EDTA, 50 mM Hepes, pH 7.4). The final pellet was resuspended into the appropriate assay buffer and quickly frozen in liquid nitrogen. The membrane preparations were store at −80° C. until use. Protein concentrations of the membranes were determined by BCA protein assay kit (PIERCE).
(§2) Binding of [^125I]Tyr^4-angiotensin II and [^125I]Tyr^13-endothelin-1 to COS-1 membranes was performed by a rapid filtration method (32, 50). Briefly, [^125I]Tyr^4-angiotensin II ([…]) or [^125I]Tyr^13-endothelin-1 (0.045˜1.46 nM) was incubated with membranes (100 μg) for 20 min at 37° C. in 100 μl buffer A (5 mM MgCl2, 0.2 mM EDTA, 10 mg/ml BSA, 10 mM Hepes, pH7.4). Binding reactions were terminated by the addition of 1 ml ice-cold buffer A and immediately filtered through a Whatman GF/C filter (presoaked overnight at 4° C. in 10 mg/ml BSA) and subsequently washed with 15 ml ice-cold buffer A. Specific binding was determined as the difference between the total radioactivity bound to membranes and the radioactivity bound to blanks containing 1 μM AngII or 1 μM ET-1. The dissociation constant (Kd) and maximum ligand-binding sites (Bmax) were determined using Hill plot analysis (55). Hill coefficient values (h) were calculated from the relationship ln [B/(Bmax−B)]=h ln [free Radioligand]−ln Kd. An F test (P<0.05) was used to determine whether the saturation binding curves best fitted one or two independent binding sites. The data were best fit by two affinity states determined by Scatchard plot analysis; KH and KL designate the Kd for high- and low-affinity states of the receptor, respectively (44). Most results are expressed as the mean±SE (standard error) from three to five independent experiments.

In assay [2] the target is T2, Dahl S Dear S44/M74 variant (Rattus norvegicus, UniProt D3ZGZ6, F4L).
T2 construct: expressed in transfected cells; host or cells: Cos1 cells (membranes), pcDNA expression vector
T2 sequence (D3ZGZ6 1-127 F4L): T1 sequence (D3ZGZ6 1-127 F4L/S44P/M74T) with P44S, T74M
Briefly: West-western blot of kidney and Cos1 cell membranes (labeled ligand on protein blot). The conditions noted are these: Dahl S kidney membranes (Kid-S) and Cos1-S membranes. Type of assay: binding. The method, then: (§3) A polyclonal rabbit antipeptide antibody raised against the synthetic peptide P51LLTSLGSKE60 (SEQ. ID. NO. 7) was utilized for western blot analysis (1). Plasma membranes (40 μg protein/lane) were subjected to 12.5% SDS-PAGE and the separated proteins electro-transferred onto PVDF membranes which were incubated with blocking buffer (0.3% Tween-20, 5% non-fat milk, 137 mM NaCl, 2.7 mM KCl, 8.1 mM Na2HPO4, and 1.5 mM KH2PO4, pH7.4) for 2 hr at room temperature, and then incubated with primary antibody (1:500) for 16 hr at 4° C. The PVDF membranes were then sequentially incubated with biotinylated goat anti-rabbit IgG followed by immunostaining with horseradish peroxidase-linked streptavidin. To confirm the interaction between Dear and ligands, we performed west-western blot analysis (62). Briefly, protein blots of kidney and COS-1 cell membranes were incubated with radioligands (0.5 μCi in 10 ml) in buffer A at 37° C. for 16 hr. PVDF membranes were then washed three times for 15 min with buffer A at 37° C. and exposed to X-ray film at −80° C. for 1-3 days.
Background: A western blot detects proteins with antibodies after separation by electrophoresis.

Assay [3] deals with T1, Dahl R Dear S44P/M74T variant. The assay is described as above. Type of assay: binding. The conditions noted are these: Dahl R kidney membranes (Kid-R) and Cos1-R membranes. The method, then:
as §3

The target in assay [4] is T2, Dahl S Dear S44/M74 variant. The assay can be described thus: Radioligand binding to Dahl S Dear expressed in Cos1 cell membranes. Particulars: for hormone binding, in words: Dahl S Dear transiently expressed in Cos1 cells; for Bmax / h (Hill coefficient): S44/M74 variant, mean ± s.e.m. The method, then: as §1, §2
The next assay has as its target T3, mouse Dear (Mus musculus, UniProt Q2QKR2).
T3 construct: The mouse receptor polypeptide contains 127 amino acids showing 78 percent homology with the rat receptor; expressed in transfected cells; host or cells: Cos-1 cells (membranes)
T3 sequence (Q2QKR2 1-127): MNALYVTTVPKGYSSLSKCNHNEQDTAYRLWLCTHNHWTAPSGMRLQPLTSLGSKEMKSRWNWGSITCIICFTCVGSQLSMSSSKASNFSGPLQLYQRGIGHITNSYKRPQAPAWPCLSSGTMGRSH
Briefly: Ligand binding to mouse Dear expressed in Cos-1 cells. The conditions noted are these: mouse receptor polypeptide, data not shown. The method, then: Mouse Dear cDNA was obtained by RT-PCR from C57BL/6 mouse kidney PolyA^+ RNA (forward primer, 5′-[…]-3′ (SEQ. ID. NO. 13); reverse primer, 5′-[…]-3′(SEQ. ID. NO. 14)), subcloned into the PT-vector system (Clontech, Palo Alto, Calif.) and then sequenced (GenBank accession no. DQ009865). RNA blot analysis was done as described (1) using PolyA^+ RNA (3 μg), γ-^32P end labeled anti-sense mouse Dear oligonucleotide (5′-[…]-3′(SEQ. ID. NO. 15)) as probe. Receptor expression studies, ^125I-ET-1-1 and ^125I-AngII binding to membranes were done as described (2).

Setting [5] is: [125I]Tyr13-Endothelin I, S44P/M74T variant, mean ± s.e.m.

Take `CC[C@H](C)[C@H](NC(=O)[C@H](Cc1ccc(O)c(I)c1)NC(=O)[C@@H](NC(=O)[C@H](CCCNC(=N)N)NC(=O)[C@@H](N)CC(=O)O)C(C)C)C(=O)N[C@@H](Cc1c[nH]cn1)C(=O)N1CCC[C@H]1C(=O)N[C@@H](Cc1ccccc1)C(=O)O` [[^125I]Tyr^4-Angiotensin II]: the “hormone binding (direct radioligand binding), in words” value in assay [1] was “do not exhibit AngII binding”. Also, the Bmax result in assay [1] ([125I]Tyr4-Angiotensin II, S44P/M74T variant, Cos1 membranes) is reported as “no binding”; in assay [4] ([125I]Tyr4-Angiotensin II, Cos1 membranes), 23.6 ± 0.92 pmol/mg membrane protein. Further, the “binding in west-western blot analysis” value in assay [2] is listed as “detects binding”; in assay [3], “binding only to Dahl S kidney membranes”. For the same compound, in assay [4], the “hormone binding, in words” value was “binding both ET-1 and AngII”. For the same compound, the “h (Hill coefficient)” value in assay [4] ([125I]Tyr4-Angiotensin II) was 2.63 ± 0.25.
Take `CC[C@H](C)[C@H](NC(=O)[C@H](CC(=O)O)NC(=O)[C@H](CC(C)C)NC(=O)[C@H](Cc1c[nH]cn1)NC(=O)[C@@H]1CSSC[C@H](N)C(=O)N[C@@H](CO)C(=O)N[C@H]2CSSC[C@H](NC(=O)[C@H](CCC(=O)O)NC(=O)[C@H](CCCCN)NC(=O)[C@H](CC(=O)O)NC(=O)[C@H](CCSC)NC(=O)[C@H](CC(C)C)NC(=O)[C@H](CO)NC(=O)[C@H](CO)NC2=O)C(=O)N[C@@H](C(C)C)C(=O)N[C@@H](Cc2ccc(O)c(I)c2)C(=O)N[C@@H](Cc2ccccc2)C(=O)N1)C(=O)N[C@H](C(=O)N[C@@H](Cc1c[nH]c2ccccc12)C(=O)O)[C@@H](C)CC` [[^125I]Tyr^13-Endothelin I]: the “ligand binding, in words” value at mouse Dear is listed as “binds solely ET-1”. The “hormone binding (direct radioligand binding), in words” value in assay [1] is “exhibit normal ET-1 binding”. Further, the Bmax worked out at 20.21 ± 1.59 pmol/mg membrane protein in assay [1] (setting [5]) and 26.25 ± 1.29 pmol/mg membrane protein in assay [4] ([125I]Tyr13-Endothelin I). Moreover, the “h (Hill coefficient)” value was found to be 1.45 ± 0.09 in assay [1] (setting [5]) and 1.41 ± 0.12 in assay [4] ([125I]Tyr13-Endothelin I). Also, the “binding in west-western blot analysis” value in assay [2] and in assay [3] was “reveals binding” throughout. The “hormone binding, in words” value in assay [4] is “binding both ET-1 and AngII”. Further, the “increased affinity for ET-1, Dahl S variant compared to Dahl R variant” value in assay [4] (KH, S44/M74 vs Dahl R variant) stood at 3 fold.
